According to patent publication US12109315B2, “Method for treating Blastocystis infection” (Imam Abdulrahman Bin Faisal University, priority 2022, dated 2024):
Read-outs that look alike come from different tables or passages of the source.

Experiments:
Blastocystis cysts = assay: organism not typed; type: cell-based; details: read-out: Reduction in the percentage of viability of Blastocystis cysts
Description: Suspensions of cultured Blastocystis from symptomatic patients were used for evaluating biological activities of the formulated nanocomposites. Blastocystis were obtained from the El-Badry Lab where ethically approved by the Deanship of Scientific Research and Postgraduate Studies of Imam Abdulrahman Bin Faisal University under the Institutional Review Board (IRB) number (IRB #2021-01-009).
Blastocystis were sub-cultured using fresh Jones' medium enriched with 10% horse serum according to Jones to get rid of stool debris [Jones, W. Ann Trop Med Parasitol., 1946, 40, 130-140; & Zman, V., and Khan, K. Southt Asian J Trop Med Public Health, 1994, 25, 792-793, each of which is incorporated herein by reference in its entirety]. Cultures with vacuolar forms of Blastocystis greater than 10^6 were used for evaluating biological activities of the formulated nanocomposites.
Suspension of cultured Blastocytis cysts, in logarithmic growth phase of 10^6/ml, were inoculated in sets of culture tubes with Jones' culture media. Haemocytometer counting chamber was used to count the number of Blastocystis cysts. The experiments contained 3 groups as follows:
Group 1 (G1): parasite (negative, not treated) control group, containing only cultured cysts of Blastocystis.
Group 2 (G2): drug (positive) control, containing cultured parasites exposed to 500 μg/ml metronidazole as reference anti-Blastocystis therapy.
Group 3 (G3): nanocomposites tested group, containing cultured parasites exposed to the three nanocomposites. G3 was further divided into subgroups to test three nanocomposites (G3A, G3B and […]) at different concentrations (G3i-iv). Parasites were exposed to increasing concentrations of the three nanocomposites of 100 μg/ml (G3i) 200 μg/ml (G3ii), 500 μg/ml (G3iii) and 800 μg/ml (G3iv) (W/V). All tubes were incubated at 37° C. in humidified CO2 for 48 hours.
All tested nanocomposites for each concentration were prepared by diluting stock solution in appropriate amount of PBS. The volume of each of the experiment tubes was brought to 1 ml with Blastocystis 10^6/ml concentration. All experiments were performed in triplicate [El-Sayed, S. H., et. al., Res J Parasitol., 2017, 12,2, 33-44; Méabed, E. M. H., Phytomedicine, 2018, 1, 43, 158-163; & Mokhtar, A. B., et. al., Int J Environ Res Public Health, 2019, 16, 1555, each of which is incorporated herein by reference in its entirety].
The number of Blastocystis cysts from all cultured tubes included in the experiment were counted under the microscope in haemocytometer counting chamber, and cultured Blastocystis cysts were tested for their viability using Trypan blue solution (0.4%). […] The dead Blastocystis cysts were further confirmed by microscopic detection of cell wall disruption and destruction of internal structures. All cultured tubes were examined for percentage of reduction in growth of Blastocystis cysts each hour for 5 hours then after 24 hours. The minimal lethal concentration (MLC) was determined to be the concentration at which no Blastocystis cysts were observed.

[1] = Drug release study (dialysis membrane, PBS, UV-visible spectroscopy); type: physicochemical; details: within 12 h, absence of nanocarrier, PBS pH 5.6, 37° C.
Procedure: Prior to the study, the dialysis membrane (12 KDa, Sigma Aldrich) was activated and then 15 mg of nanoformulation was dispersed in 25 ml of PBS solution (pH 5.6 and 7.4). The release of antioxidants are studied at 37° C. At regular time interval, 5 ml of solution was withdrawn, and release of antioxidants were measured using UV-visible spectroscopy. The withdrawn solution (5 ml) was replaced with equal volume of fresh PBS solution.
Various concentration of aliquots 5, 10, 15, 20, 25 and 30 μg/ml was prepared with makeup volume to 10 ml using release medium PBS solution (pH=5.6 or 7.4) and calibration curve established against blank at maximum absorption wavelength λmax of 428 nm and 307 nm, respectively. […] The release study was repeated in triplicates.

SMILES | inhibition at 500 µg/mL (Blastocystis cysts; 1 h) | inhibition at 500 µg/mL (Blastocystis cysts; 2 h) | inhibition at 500 µg/mL (Blastocystis cysts; 3 h) | inhibition at 500 µg/mL (Blastocystis cysts; 4 h) | inhibition at 500 µg/mL (Blastocystis cysts; 5 h) | inhibition at 500 µg/mL (Blastocystis cysts; 24 h) | maximum release of resveratrol (burst release) [1]
Cc1ncc([N+](=O)[O-])n1CCO [Metronidazole, metronidazole] | 81.7% | 87.7% | 91.3% | 96.3% | 98.7% | 99.3% | 
Oc1ccc(/C=C/c2cc(O)cc(O)c2)cc1 [resveratrol, Resveratrol] |  |  |  |  |  |  | 43%
